Publication PMC2201222 (The Journal of General Physiology, 1968)

Key:
[1] = Electrical resistance and potential of thin lipid; parameters: species or system sheep; settings: about 22C, unbuffered pH 5.6
[2] = Activity toward Na+-K+ transport across sheep red cell and thin lipid membranes; settings: for selectivity for K+ over Na+ (section heading of Table II): sheep red cells and thin lipid membranes
[3] = format: physicochemical; settings: read-out by bilayer resistance
[4] = general statement, no method or reference given; cited from earlier work

With `CO[C@@H]1C[C@@H](C[C@H]2CC[C@H](C)[C@H]([C@@H](C)C(=O)O)O2)O[C@]2(O[C@](C)([C@H]3CC[C@@](C)([C@@H]4O[C@@H]([C@H]5O[C@@](O)(CO)[C@H](C)C[C@@H]5C)C[C@@H]4C)O3)C[C@H]2C)[C@@H]1C` [Nigericin] the “Bilayers, TNa/TK (ratio of the transference number for Na+ to that for K+)” value ([1]; compound 10^-6 M) was under 0.I and the “selectivity for K+ over Na+ (section heading of Table II)” value (“selectivity for K+ over Na+” for short) [2] was “moderate to low selectivity”.
With `C[C@@H]1C[C@H]2CC[C@H](O2)[C@H](C)C(=O)O[C@@H](C)C[C@@H]2CC[C@@H](O2)[C@@H](C)C(=O)O[C@H](C)C[C@H]2CC[C@H](O2)[C@H](C)C(=O)O[C@@H](C)C[C@@H]2CC[C@@H](O2)[C@@H](C)C(=O)O1` [Nonactin, nonactin] the “Bilayers, TNa/TK (ratio of the transference number for Na+ to that for K+)” value ([1]; compound 10^-7 M) was under 0.01 and the “selectivity for K+ over Na+” value [2] was “high selectivity”.
For `C=C1NC(=O)CC[C@@H](C(=O)O)NC(=O)[C@H](NC(=O)[C@H](CCCCN)NC(=O)[C@@H](N)Cc2c[nH]c3ccccc23)CSC[C@@H](C(=O)N[C@@H]2C(=O)N3CCC[C@H]3C(=O)NCC(=O)N[C@H](C(=O)N[C@H](C(=O)N[C@@H]3C(=O)NCC(=O)N[C@@H](C)C(=O)N[C@@H](CC(C)C)C(=O)N[C@@H](CCC(N)=O)C(=O)N/C(=C/C)C(=O)N[C@H](C(=O)N[C@@H](Cc4ccccc4)C(=O)N[C@@H](CC(C)C)C(=O)N[C@@H](CCC(N)=O)C(=O)N[C@@H]4C(=O)N[C@@H](CC(C)C)C(=O)N[C@H]5C(=O)N[C@@H](CSC4C)C(=O)NC(=O)[C@H](CC(N)=O)N[C@H](C(=O)N[C@@H](CCCCN)C(=O)N[C@H](C(=O)NC(=C)C(=O)N[C@@H](CCCCN)C(=O)O)[C@@H](C)CC)CSC5C)CSC3C)C(C)C)CSC2C)N[C@@H](CC(C)C)C(=O)NC1=O` (some centres unmarked) [Subtilin], the “activity on cation selectivity (section heading of Table II)” value (from here on “activity on cation selectivity”) ([2]; maximum conc. tested 10^-6 M) was “Inactive”.
For `CC(C)[C@@H]1NC(=O)[C@H](C)OC(=O)[C@@H](C(C)C)NC(=O)[C@@H](C(C)C)OC(=O)[C@H](C(C)C)NC(=O)[C@H](C)OC(=O)[C@@H](C(C)C)NC(=O)[C@@H](C(C)C)OC(=O)[C@H](C(C)C)NC(=O)[C@H](C)OC(=O)[C@@H](C(C)C)NC(=O)[C@@H](C(C)C)OC1=O` [Valinomycin, valinomycin], the “Partition coefficient between decane and NaCl (0.1 M), compared with KCl (0.1 M)” value ([3]; aqueous phase NaCl (0.1 M)) is listed as “the same”, the “Partition coefficient between decane and pure H2O, compared with KCl (0.1 M)” value ([3]; aqueous phase pure H2O) is listed as “the same” and the solubility in water [4] is listed as “almost insoluble”.
In the case of Bacitracin A, the “activity on cation selectivity” value ([2]; maximum conc. tested 10^-6 M) is reported as “Inactive”.
For Gramicidin A, the “selectivity for K+ over Na+” value [2] was “moderate to low selectivity”.
In the case of Gramicidin B, the “Bilayers, TNa/TK (ratio of the transference number for Na+ to that for K+)” value ([1]; compound 10^-6 M) is reported as 0.4 and the “selectivity for K+ over Na+” value [2] is reported as “moderate to low selectivity”.
With Gramicidin C the “selectivity for K+ over Na+” value [2] was “moderate to low selectivity”.
For Phalloidin, the “activity on cation selectivity” value ([2]; maximum conc. tested 10^-4 M) was “Inactive”.
For Polymixin B, the “activity on cation selectivity” value ([2]; maximum conc. tested 10^-5 M) was “Inactive”.
In the case of Vernamycin, the “activity on cation selectivity” value ([2]; maximum conc. tested 10^-5 M) is reported as “Inactive”.
With Viridogrisein the “activity on cation selectivity” value ([2]; maximum conc. tested 10^-6 M) was “Inactive”.
